Patent US20020040005A1, “Composition and method of treating cancer” (priority 1995, published 2002)

Legend:
Raji lymphoma cells = settings: cited from earlier work; for cell growth: in vitro, dose dependently
HeLa cells = settings: cited from earlier work; for cell growth: in vitro, dose dependently
[1] = tested on: skin tumors promoted by TPA; settings: two-step initiation-promotion protocol; cited from earlier work
[2] = tested on: 12-O-tetradecanoyl-phorbol-13-acetate (TPA) effects in mouse epidermis; settings: applied topically to mouse skin; cited from earlier work
[3] = tested on: Hypernephroma (Cancer of Kidney); assay: Clinical experimental trials in Cuba, voluntary patients: hypernephroma; format: in vivo, human
Description: (§1) The following clinical data was collected on voluntary patients during clinical experimental trials in Cuba. A 10% concentration of tannic acid was used in all of the clinical studies set forth below.

Monoblastic Leukemia = assay: Clinical experimental trials in Cuba, voluntary patients: monoblastic leukemia; format: in vivo, human; settings: Patient #17, no improvement with chemotherapy; maximum levels, one year
Description: as §1

Colon Carcinoma = assay: Clinical experimental trials in Cuba, voluntary patients: colon carcinoma; format: in vivo, human
Description: as §1

Breast carcinoma = assay: Clinical experimental trials in Cuba, voluntary patients: breast carcinoma; format: in vivo, human; settings: for clinical outcome: terminal
Description: as §1

Carcinoma of the Bladder = assay: Clinical experimental trials in Cuba, voluntary patients: carcinoma of the bladder; format: in vivo, human
Description: as §1

[4] = tested on: Liposarcoma of the right thigh; assay: Clinical experimental trials in Cuba, voluntary patients: liposarcoma; format: in vivo, human; settings: Patient #18, two unsuccessful operations; maximum levels, one year
Description: as §1

Carcinoma of penis = assay: Clinical experimental trials in Cuba, voluntary patients: carcinoma of penis; format: in vivo, human; settings: Patient #11, metastasized, terminal; maximum levels after surgery, one year
Description: as §1

[5] = tested on: epidermal PAH metabolism, PAH-induced skin tumorigenesis; settings: applied topically to Sencar mice; cited from earlier work
[6] = tested on: Cancerous Lesion of the Tongue; assay: Clinical experimental trials in Cuba, voluntary patients: cancerous lesion of the tongue; format: in vivo, human; settings: Patient #10, conventional treatment ineffective; 3 months at stage 1 dosage
Description: as §1

[7] = tested on: Acute Lymphocytic Leukemia; assay: Clinical experimental trials in Cuba, voluntary patients: acute lymphocytic leukemia; format: in vivo, human; settings: for time to relapse after completion of therapy: leukemia cells encysted in the testes
Description: as §1

Carcinoma of the uterus = assay: Clinical experimental trials in Cuba, voluntary patients: carcinoma of the uterus; format: in vivo, human; settings: for clinical outcome: one year
Description: as §1

Hodgkin's Lymphoma = assay: Clinical experimental trials in Cuba, voluntary patients: Hodgkin's lymphoma; format: in vivo, human; settings: Patient #14, chemotherapy discontinued, considered terminal; one year
Description: as §1

Prostate Carcinoma = assay: Clinical experimental trials in Cuba, voluntary patients: prostate carcinoma; format: in vivo, human; settings: 10% tannic acid
Description: as §1

Multiple Myelomas = assay: Clinical experimental trials in Cuba, voluntary patients: multiple myelomas; format: in vivo, human
Description: as §1

For `O=C(O)c1cc(O)c(O)c(O)c1` [gallic acid, reference compound], the cell growth (Raji lymphoma cells) is given as “inhibited” and the cell growth (HeLa cells; HeLa) is given as “inhibited”.

For `O=c1oc2c(O)c(O)cc3c(=O)oc4c(O)c(O)cc1c4c23` [ellagic acid, reference compound], the “incidence and yield of skin tumors promoted by TPA” value [1] is given as “inhibited”, the “TPA-induced DNA synthesis” value [2] is given as “inhibited” and the TPA-induced hydroperoxide production [2] is given as “inhibited”. For the same compound, the “TPA-induced ornithine decarboxylase activity” value [2] was “inhibited”.

With `O=C(OC[C@H]1O[C@@H](OC(=O)c2cc(O)c(O)c(OC(=O)c3cc(O)c(O)c(O)c3)c2)[C@H](OC(=O)c2cc(O)c(O)c(OC(=O)c3cc(O)c(O)c(O)c3)c2)[C@@H](OC(=O)c2cc(O)c(O)c(OC(=O)c3cc(O)c(O)c(O)c3)c2)[C@@H]1OC(=O)c1cc(O)c(O)c(OC(=O)c2cc(O)c(O)c(O)c2)c1)c1cc(O)c(O)c(OC(=O)c2cc(O)c(O)c(O)c2)c1` [tannic acid] the skeletal finding ([3]; Patient #20, metastasis in lungs and ribs, terminal, maximum levels, after 20 days of therapy) was “regeneration of ribs had occurred”, the functional status ([3]; Patient #20, after one month of therapy) was “the patient had returned to normal daily activities” and the survival after therapy ([3]; Patient #20, therapy discontinued at three months) was “two”. For the same compound, the “incidence and yield of skin tumors promoted by TPA” value [1] was “inhibited”, the “TPA-induced DNA synthesis” value [2] was “inhibited” and the TPA-induced hydroperoxide production [2] was “inhibited”. For the same compound, the “TPA-induced ornithine decarboxylase activity” value [2] was “inhibited”, the clinical outcome (Monoblastic Leukemia) was “They were cured of monoblastic Leukemia and has had no relapse” and the regular checkups (Colon Carcinoma; Patient #4, maximum therapy along with chemotherapy) was “all have been negative”. For the same compound, the blood work (Colon Carcinoma; Patient #4, maximum therapy simultaneously with 72 chemotherapy dosages) was “normal”, the clinical outcome (Colon Carcinoma; Patient #9, tumor not removed, no chemotherapy or radiation, maximum level, one year) was “Tumor disappeared and has not returned” and the “clinical outcome (metastatic growth after surgery)” value (Breast carcinoma; Patient #2, after surgery on left breast, minimal 3 month period, 10% tannic acid) was “No additional cancerous growths were detected anywhere in their body”. For the same compound, the tumor size (Breast carcinoma; Patient #3, tumor 5 cms by 5 cms, no surgery, maximum levels, after first three month interval, 10% tannic acid) was “Tumor diminished in size after first three month interval to the point where it was very difficult to detect by manual examination”, the long-term outcome (Breast carcinoma; Patient #3, therapy continued for one year) was “Cancer never returned to this day” and the clinical outcome (Breast carcinoma; Patient #6, metastasis in skeletal system, lungs and liver, maximum therapy, one year) was “they were cured of cancer in all organs”. The “clinical outcome at end of therapy” value (Breast carcinoma; Patient #15, left mammary gland removed, one year) was “no cancer was detected”, the clinical outcome (Breast carcinoma; Patient #16, metastasis in both lungs and lymph nodes, maximum levels, one and one half year) was “the Doctor declared patient cured” and the “carcinoma size by cystoscopic exam” value (Carcinoma of the Bladder; Patient #21, refused surgery, maximum dosage, first three month check-up) was “the carcinoma had diminished in size”. For the same compound, the clinical outcome (Carcinoma of the Bladder; Patient #21, at 10 months) was “declared cured of cancer”, the “potency relative to gallic acid” value (Raji lymphoma cells) was “twice as potent as its monomer gallic acid” and the cell growth (Raji lymphoma cells) was “inhibited”. The clinical outcome [4] was “They were cured of cancer, and has had no relapse”, the cell growth (HeLa cells; HeLa) was “inhibited” and the “potency relative to gallic acid” value (HeLa cells; HeLa) was “twice as potent as its monomer gallic acid”. The clinical outcome (Carcinoma of penis) was “They have had no relapse and is cured of the cancer”, the PAH-DNA adduct formation [5] was “substantial inhibition” and the PAH-induced skin tumorigenesis [5] was “substantial inhibition”. The “epidermal PAH metabolism” value [5] was “substantial inhibition”, the clinical outcome [6] was “The lesion healed and the tissue of the tongue was restored to normal” and the “outcome of first therapy period” value ([7]; Patient #8, terminal, one year at maximum dosage) was “Patient initially showed signs of being cured”. For the same compound, the “time to relapse after completion of therapy” value ([7]; Patient #8) was “two”, the “outcome of readministered therapy” value ([7]; Patient #8, year long treatment period after relapse) was “patient was cured” and the “time to relapse after completion of therapy” value ([7]; Patient #12) was “about 2 years”. For the same compound, the “outcome of first therapy period” value ([7]; Patient #12, maximum level, one year) was “Patient initially showed signs of being cured”, the “outcome of readministered therapy” value ([7]; Patient #12, readministered for one year after relapse) was “Patient was cured and subsequent check-ups have been negative” and the overall bloodwork ([7]; Patient #13, no improvement with prior chemotherapy) was “immediately overall bloodwork returned to normal parameters”. For the same compound, the clinical outcome (Carcinoma of the uterus; Patient #5, metastatic growth throughout internal organs, terminal, maximum levels) was “They were cured of the cancer throughout their body”, the clinical outcome (Carcinoma of the uterus; Patient #7, refused further radiation, maximum dosage, no other treatments) was “Semi-annual checkups reveal no relapse” and the “outcome of readministered therapy” value (Carcinoma of the uterus; Patient #15, carcinoma of the uterus discovered two years after first therapy, readministered one year) was “They were cured of uterine cancer”. The clinical outcome (Hodgkin's Lymphoma) was “they were cured of disease”, the clinical outcome (Prostate Carcinoma; Patient #1, inoperative, maximum dosage, first treatment period three months) was “Cancer was cured” and the catheter removal (Prostate Carcinoma; Patient #1, two weeks after initiation of therapy) was “catheter was removed”. The “X-rays at the end of the therapy” value (Multiple Myelomas; Patient #19, metastasis in hips and ribs, maximum levels, three month period, no other therapy) was “actual regeneration of skeletal tissue and structure” and the “time to death of Myeloma after stopping treatment” value (Multiple Myelomas; Patient #19, refused treatment after three months) was “four”.

For `O=C(/C=C/c1ccc(O)c(O)c1)c1ccc(O)cc1O` [Butein], the growth inhibition (HeLa cells; 10 microM, cell line not stated, more effective on HeLa cells) is given as 30%.

For `CC1=C(/C=C/C(C)=C/C=C/C(C)=C/CO)C(C)(C)CCC1` [Retinol, reference compound], the cell proliferation (Raji lymphoma cells; 100 microM) is given as “inhibited cell proliferation completely” and the cell proliferation (HeLa cells; 100 microM, HeLa) is given as “inhibited cell proliferation completely”.
